Assay results: patent publication US10815264B2, “Nucleotides for the treatment of cancer” (IDENIX PHARMACEUTICALS LLC, priority 2015, dated 2020)
Where two headings read alike, the source gives them in different places.

Key:
Assay in all cases: In vitro inhibition, CellTiter-Glo (CTG) assay, 72 hr exposure
Assay type in all cases: cell-based
PANC-1 = settings: PANC-1, 72 hr
Method: (§1) Cells were grown in RPMI-1640 supplemented with L-Glutamine and 10% FBS of the following cell lines:
(§2) CCRF-CEM; CCRF-CEM-cytarabine resistant; HL-60; K562; CFPAC-1; MiaPACA-2; BxPC-3; PANC-1; HepG2; MDA-MB-231; HCT-116; A498; and NCI-H69
(§3) 18, 96 well plates of each cell line were seeded with the optimized number of cells per well in a total volume of 50 μL per well. The plates were left overnight. Plate wells were seeded with 100 μL media for media control. The following day, cells were exposed to test compounds as described below. At the same time as drug exposure, a CTG assay was conducted on the 18th plate for the 0 hr count.
(§4) The compounds were added to cells and medium already on the plate to give desired final concentrations. 50 μL media were added to cell control wells, and 50 μL of mix added to vehicle control wells. 10 μM Doxorubicin was added to appropriate wells. Cells exposed to test compound were incubated at 37° C. for 72 hr followed by a CTG assay.
(§5) At the end of the 72 hr exposure period, plates were removed for a CellTiter-Glo (CTG) assay from a 37° C., 5% CO2 incubator and placed on the bench at room temperature for 30 mins. 100 μL of CellTiter-Glo reagent was added and mixed for 2 mins, followed by a further 10 min incubation at room temperature. Luminescence was recorded using Synergy 4.0.

A498 = system: A498
Method: as §1, §2, §3, §4, §5

MDA-MB-231 = settings: MDA-MB-231, 72 hr
Method: as §1, §2, §3, §4, §5

CFPAC-1 = system: CFPAC-1
Method: as §1, §2, §3, §4, §5

[1] = system: CCRF-CEM-cytarabine resistant
Method: as §1, §2, §3, §4, §5

MiaPACA-2 = system: MiaPACA-2
Method: as §1, §2, §3, §4, §5

BxPC-3 = system: BxPC-3
Method: as §1, §2, §3, §4, §5

HL-60 = system: HL-60
Method: as §1, §2, §3, §4, §5

NCI-H69 = system: NCI-H69
Method: as §1, §2, §3, §4, §5

HCT-116 = system: HCT-116
Method: as §1, §2, §3, §4, §5

HepG2 = system: HepG2
Method: as §1, §2, §3, §4, §5

K562 = settings: Homo sapiens, K562, 72 hr
Method: as §1, §2, §3, §4, §5

CCRF-CEM = system: CCRF-CEM
Method: as §1, §2, §3, §4, §5

[2] = Homo sapiens, MIA PaCa-2, MiaPACA-2, 72 hr

Structure (SMILES) | IC50 [1] [µM] | IC50 (NCI-H69; NCI-H69, 72 hr) [µM] | IC50 (HepG2; HepG2, 72 hr) [µM] | IC50 (K562) [µM] | IC50 (PANC-1; Homo sapiens) [µM] | IC50 (A498; Homo sapiens, A498, 72 h) [µM] | IC50 (MDA-MB-231; Homo sapiens) [µM] | IC50 (CFPAC-1; Homo sapiens, CFPAC-1, 72 h) [µM] | IC50 (MiaPACA-2; [2]) [µM] | IC50 (BxPC-3; Homo sapiens, BXPC-3, 72 h) [µM] | IC50 (HCT-116; Homo sapiens, HCT-116, 72 h) [µM] | IC50 (HepG2; Homo sapiens, HepG2, 72 h) [µM] | IC50 (HL-60; Homo sapiens, HL-60, 72 h) [µM] | IC50 (NCI-H69; Homo sapiens, NCI-H69, 72 h) [µM] | IC50 (CCRF-CEM; Homo sapiens, 72 h) [µM] | also measured
CC(C)OC(=O)[C@H](C)NP(=O)(OC[C@H]1S[C@@H](n2ccc(N)nc2=O)[C@@H](O)[C@@H]1O)Oc1ccccc1 (single isomer, unassigned) [Compound 101b (diastereoisomer 2)] | 1 to 10 | 10 to 100 | 1 to 10 | 10 to 100 | – | – | – | – | – | – | – | – | – | – | – | IC50 (PANC-1): 10 to 100 µM; IC50 (A498; A498, 72 hr): 10 to 100 µM; IC50 (MDA-MB-231): 10 to 100 µM; IC50 (CFPAC-1; Homo sapiens, CFPAC-1, 72 hr): 10 to 100 µM; IC50 (MiaPACA-2; MiaPACA-2, 72 hr): 1 to 10 µM; IC50 (BxPC-3; Homo sapiens, BxPC-3, 72 hr): 10 to 100 µM; IC50 (HL-60; Homo sapiens, HL-60, 72 hr): 1 to 10 µM; IC50 (HCT-116; HCT-116, 72 hr): 1 to 10 µM; IC50 (CCRF-CEM; Homo sapiens): < 1 µM
CC(C)(C)SSCCOP(=O)(NCc1ccccc1)OC[C@H]1S[C@@H](n2ccc(N)nc2=O)[C@@H](O)[C@@H]1O (single isomer, unassigned) [Compound 105 (diastereoisomer 1)] | 10 to 100 | 1 to 10 | – | 10 to 100 | 10 to 100 | 10 to 100 | 10 to 100 | 10 to 100 | 1 to 10 | 10 to 100 | 10 to 100 | 10 to 100 | – | – | – | IC50 (HL-60; HL-60, 72 hr): 1 to 10 µM; IC50 (CCRF-CEM): 1 to 10 µM
CC(=O)OC[C@H](C)NP1(=O)OC[C@H]2S[C@@H](n3ccc(N)nc3=O)[C@@H](O)[C@@H]2O1 (single isomer, unassigned) [Compound 108b (diastereoisomer 1)] | 10 to 100 | – | – | 10 to 100 | 10 to 100 | 10 to 100 | 10 to 100 | 10 to 100 | 10 to 100 | 10 to 100 | 10 to 100 | 10 to 100 | 10 to 100 | 10 to 100 | 10 to 100 | –
COC(=O)COP(=O)(N[C@@H](CC(C)C)C(=O)OC)OC[C@H]1S[C@@H](n2ccc(N)nc2=O)[C@@H](O)[C@@H]1O (single isomer, unassigned) [Compound 104b (diastereoisomer 1)] | 10 to 100 | – | 1 to 10 | 10 to 100 | 10 to 100 | 10 to 100 | 10 to 100 | 10 to 100 | 10 to 100 | 10 to 100 | 10 to 100 | – | 1 to 10 | 10 to 100 | < 1 | –
Nc1ccn([C@@H]2S[C@H](COP(=O)(NCc3ccccc3)OCc3ccc([N+](=O)[O-])o3)[C@@H](O)[C@@H]2O)c(=O)n1 (single isomer, unassigned) [Compound 103 (diastereoisomer 1)] | 1 to 10 | 10 to 100 | – | 1 to 10 | 10 to 100 | – | 10 to 100 | – | 1 to 10 | – | – | 1 to 10 | < 1 | – | < 1 | IC50 (A498; A498, 72 hr): 10 to 100 µM; IC50 (CFPAC-1; CFPAC-1, 72 hr): 10 to 100 µM; IC50 (BxPC-3; BxPC-3, 72 hr): 10 to 100 µM; IC50 (HCT-116; HCT-116, 72 hr): 10 to 100 µM
Cn1c(COP(=O)(NCc2ccccc2)O[C@H]2[C@H](O)[C@H](n3ccc(N)nc3=O)S[C@@H]2CO)cnc1[N+](=O)[O-] (mixture of isomers) [Compound 106b (mixture of diastereoisomers), 4-amino-1-[(2R,3S,4S,5R)-4-[(benzylamino)-[(3-methyl-2-nitro-imidazol-4-yl)methoxy]phosphoryl]oxy-3-hydroxy-5-(hydroxymethyl)tetrahydrothiophen-2-yl]pyrimidin-2-one] | 10 to 100 | – | – | 10 to 100 | 10 to 100 | 10 to 100 | 10 to 100 | 10 to 100 | 10 to 100 | 10 to 100 | 10 to 100 | 10 to 100 | 10 to 100 | 10 to 100 | 10 to 100 | –
CCOC(=O)COP(=O)(N[C@@H](CC(C)C)C(=O)OCC)OC[C@H]1S[C@@H](n2ccc(N)nc2=O)[C@@H](O)[C@@H]1O (single isomer, unassigned) [Compound 102b (diastereoisomer 1)] | 10 to 100 | – | 1 to 10 | 10 to 100 | 10 to 100 | 10 to 100 | 10 to 100 | 10 to 100 | 10 to 100 | 10 to 100 | 10 to 100 | – | 1 to 10 | 10 to 100 | < 1 | –
